# Target: T1, recombinant autotaxin (Homo sapiens, UniProt Q13822)
# T1 construct: made in house; host or cells: Hi5 insect cells (baculovirus)
# Experiment: Autotaxin test (enzyme test), Amplex Red fluorescence with LPC substrate
# Assay type: biochemical
# Conditions: autotaxin inhibition (enzyme test); for remaining activity at 10 µM: 10 μM compound, read-out: % Control at 10 μM
# Experimental: Autotaxin Inhibition (Enzyme Test)
# Autotaxin Test (Enzyme Test)
# The autotaxin activity is measured indirectly using Amplex Red reagent. Amplex Red is measured here as fluorogenic indicator for the H2O2 formed. In detail, autotaxin converts the substrate lysophosphatidylcholine (LPC) into phosphocholine and lysophosphatidylic acid (LPA). After this reaction, the phosphocholine is reacted with alkaline phosphatase to give inorganic phosphate and choline. In the next step, choline is oxidised by choline oxidase to give betaine, with formation of H2O2. H2O2 reacts with Amplex Red reagent in the presence of peroxidase (horseradish peroxidase) in a 1:1 stoichiometry and forms the highly fluorescent resorufin. The fluorescence is measured in a reaction-dependent kinetic mode in order that fluorescent signals from possible other fluorescent substances which are not involved in the reaction can be corrected out.
# 3 μl of a standard solution or of the test substances (substances with the name A(n)) in individual concentrations dissolved in 20 mM Hepes pH 7.2 with a maximum of 11% of DMSO are pre-incubated together with 20 μl (19 ng) of highly purified recombinant autotaxin in test buffer in a black microtitre plate provided with 384 wells at 22° C. for 30 min. The reaction is then initiated by addition of 10 μl of L-α-lysophosphatidylcholine (LPC), where the final concentration of LPC is 75 μM. The mixture is incubated at 37° C. for 90 min. After the incubation, Amplex Red reagent, peroxidase (horseradish peroxidase) and choline oxidase is added, and the fluorescence is immediately measured at 612 nm with excitation of 485 nm in a “Tecan Ultra multimode” reader. The activity of autotaxin is calculated indirectly via detection of the H2O2 formed.
# • Microtitre plate: PS microplate, 384 wells, small volume, black Corning, Cat#3677 • Protein: recombinant autotaxin (Baculovirale Hi5 Expression) • Substrate: L-α-lysophosphatidylcholine (chicken egg)); Avanti Polar Lipids #830071 P • Standard: C14 LPA, Avanti Polar Lipids, Cat#857120P • Detection reagent: Amplex Red reagent; Invitrogen #A12222; 5 mg dissolved in 1.923 ml of DMSO peroxidase type VI-A (horseradish) from Sigma #P6782; 5 mg dissolved in 7.45 ml of test buffer, choline oxidase; Sigma # C5896; 50 U dissolved in 2.47 ml of test buffer • Detection reagent mix: 1:50 dilution of detection reagent in test buffer • Test buffer: 10 mM Tris HCl, Merck, Cat #1.08219, pH 8, 1 mM; CaCl2×2 H2O, Merck #1.02382
SMILES,remaining activity at 10 µM,IC50
"O=C1Nc2ccc(-c3ccc(Cl)cc3F)cc2C(=O)N2CCN(C(=O)CC3CC3)CC12 (stereo not drawn) [Compound A28, 7-(4-Chloro-2-fluorophenyl)-2-(2-cyclopropylacetyl)-1,3,4,11a-tetrahydro-2H,10H-2,4a,10-triaza-dibenzo[a,d]cycloheptene-5,11-dione]",4%,> 1 µM
"O=C1Nc2ccc(-c3ccc(Cl)cc3)cc2C(=O)N2CCN(C(=O)Cc3ccccn3)CC12 (stereo not drawn) [Compound A29, 7-(4-Chlorophenyl)-2-(2-pyridin-2-ylacetyl)-1,3,4,11a-tetrahydro-2H,10H-2,4a,10-triaza-dibenzo[a,d]cycloheptene-5,11-dione]",51%,> 1 µM
"O=C1Nc2ccc(-c3ccc(Cl)cc3F)cc2C(=O)N2CCN(C(=O)Cc3ccccn3)CC12 (stereo not drawn) [Compound A30, 7-(4-Chloro-2-fluorophenyl)-2-(2-pyridin-2-ylacetyl)-1,3,4,11a-tetrahydro-2H,10H-2,4a,10-triaza-dibenzo[a,d]cycloheptene-5,11-dione]",23%,> 1 µM
"O=C1Nc2ccc(-c3ccc(Cl)cc3F)cc2C(=O)N2CCN(C(=O)Cc3ccccc3)CC12 (stereo not drawn) [Compound A31, 7-(4-Chloro-2-fluorophenyl)-2-phenylacetyl-1,3,4,11a-tetrahydro-2H,10H-2,4a,10-triaza-dibenzo[a,d]cycloheptene-5,11-dione]",17%,> 1 µM
"O=C1Nc2ccc(-c3ccc(Cl)cc3)cc2C(=O)N2CCN(C(=O)Cc3ccccc3)CC12 (stereo not drawn) [Compound A32, 7-(4-Chlorophenyl)-2-phenylacetyl-1,3,4,11a-tetrahydro-2H,10H-2,4a,10-triazadibenzo[a,d]-cycloheptene-5,11-dione]",76%,–
CC(C)(C)CCN1CCN2C(=O)c3cc(-c4ccc(Cl)cc4F)ccc3NC(=O)C2C1 (stereo not drawn) [Compound A33],72%,> 1 µM
"O=C(C(=O)N1CCN2C(=O)c3cc(-c4ccc(Cl)cc4)ccc3NC(=O)C2C1)c1ccccc1 (stereo not drawn) [Compound A35, 7-(4-Chlorophenyl)-2-(2-oxo-2-phenylacetyl)-1,3,4,11a-tetrahydro-2H,10H-2,4a,10-triaza-dibenzo[a,d]cycloheptene-5,11-dione]",11%,> 1 µM
"Cc1nc(C(=O)N2CCN3C(=O)c4cc(-c5ccc(Cl)cc5)ccc4NC(=O)C3C2)c(N)s1 (stereo not drawn) [Compound A37, 2-(5-Amino-2-methylthiazole-4-carbonyl)-7-(4-chlorophenyl)-1,3,4,11a-tetrahydro-2H,10H-2,4a,10-triazadibenzo[a,d]cycloheptene-5,11-dione]",66%,> 1 µM
"O=C1Nc2ccc(-c3ccc(Cl)cc3)cc2C(=O)N2CCN(C(=O)C(O)c3ccc(Cl)cc3)CC12 (stereo not drawn) [Compound A38, 7-(4-Chlorophenyl)-2-[2-(4-chlorophenyl)-2-hydroxyacetyl]-1,3,4,11a-tetrahydro-2H,10H-2,4a,10-triazadibenzo[a,d]cycloheptene-5,11-dione]",35%,> 1 µM
"CC(O)(C(=O)N1CCN2C(=O)c3cc(-c4ccc(Cl)cc4)ccc3NC(=O)C2C1)c1ccccc1 (stereo not drawn) [Compound A39, 7-(4-Chlorophenyl)-2-(2-hydroxy-2-phenylpropionyl)-1,3,4,11a-tetrahydro-2H,10H-2,4a,10-triazadibenzo[a.d]cycloheptene-5,11-dione]",22%,> 1 µM

# Now from value to compound:
remaining activity at 10 µM,IC50,SMILES
70%,> 1 µM,"CC(C)(C)CC(=O)N1CCN2C(=O)c3cc(-c4ccc(C(F)(F)F)cc4)ccc3NC(=O)C2C1 (stereo not drawn) [Compound A18, 2-(3,3-Dimethylbutyryl)-7-(4-trifluoromethylphenyl)-1,3,4,11a-tetrahydro-2H,10H-2,4a,10-triaza-dibenzo[a,d]cycloheptene-5,11-dione]"
65%,> 1 µM,"CC(C)(C)CC(=O)N1CCN2C(=O)c3cc(-c4cc(Cl)cc(Cl)c4)ccc3NC(=O)C2C1 (stereo not drawn) [Compound A19, 7-(3,5-Dichlorophenyl)-2-(3,3-dimethylbutyryl)-1,3,4,11a-tetrahydro-2H,10H-2,4a,10-triaza-dibenzo[a,d]cycloheptene-5,11-dione]"
63%,> 1 µM,"O=C1Nc2ccc(-c3ccccc3F)cc2C(=O)N2CCN(C(=O)CCc3ccccn3)CC12 (stereo not drawn) [Compound A20, 7-(2-Fluorophenyl)-2-(3-pyridin-2-ylpropionyl)-1,3,4,11a-tetrahydro-2H,10H-2,4a,10-triaza-dibenzo[a,d]cycloheptene-5,11-dione]"
82%,> 1 µM,"O=C1Nc2ccc(-c3ccc(Cl)cc3)cc2C(=O)N2CCN(C(=O)[C@@H]3CCCCN3)CC12 (stereo partly drawn) [Compound A21, 7-(4-Chlorophenyl)-2-((S)-piperidine-2-carbonyl)-1,3,4,11a-tetrahydro-2H,10H-2,4a,10-triaza-dibenzo[a,d]cycloheptene-5,11-dione]"
61%,> 1 µM,"CS(=O)(=O)CC(=O)N1CCN2C(=O)c3cc(-c4ccc(Cl)cc4)ccc3NC(=O)C2C1 (stereo not drawn) [Compound A22, 7-(4-Chlorophenyl)-2-(2-methanesulfonylacetyl)-1,3,4,11a-tetrahydro-2H,10H-2,4a,10-triaza-dibenzo[a,d]cycloheptene-5,11-dione]"
54%,> 1 µM,"CCCc1nn(C)cc1C(=O)N1CCN2C(=O)c3cc(-c4ccc(Cl)cc4)ccc3NC(=O)C2C1 (stereo not drawn) [Compound A23, 7-(4-Chlorophenyl)-2-(1-methyl-3-propyl-1H-pyrazole-4-carbonyl)-1,3,4,11a-tetrahydro-2H,10H-2,4a,10-triazadibenzo[a,d]cycloheptene-5,11-dione]"
67%,> 1 µM,"O=C1Nc2ccc(-c3ccc(Cl)cc3)cc2C(=O)N2CCN(C(=O)CC3CCCCC3)CC12 (stereo not drawn) [Compound A24, 7-(4-Chlorophenyl)-2-(2-cyclohexylacetyl)-1,3,4,11a-tetrahydro-2H,10H-2,4a,10-triaza-dibenzo[a,d]cycloheptene-5,11-dione]"
11%,> 1 µM,"O=C1Nc2ccc(-c3ccc(Cl)cc3)cc2C(=O)N2CCN(C(=O)CC3CCCC3)CC12 (stereo not drawn) [Compound A25, 7-(4-Chlorophenyl)-2-(2-cyclopentylacetyl)-1,3,4,11a-tetrahydro-2H,10H-2,4a,10-triaza-dibenzo[a,d]cycloheptene-5,11-dione]"
12%,> 1 µM,"Cn1cc(CCC(=O)N2CCN3C(=O)c4cc(-c5ccc(Cl)cc5)ccc4NC(=O)C3C2)cn1 (stereo not drawn) [Compound A26, 7-(4-Chlorophenyl)-2-[3-(1-methyl-1H-pyrazol-4-yl)-propionyl]-1,3,4,11a-tetrahydro-2H,10H-2,4a,10-triazadibenzo[a,d]cycloheptene-5,11-dione]"
–,0.1 to 1 µM,"CC(C)(C)[C@H](O)C(=O)N1CCN2C(=O)c3cc(-c4ccc(Cl)cc4)ccc3NC(=O)C2C1 (stereo partly drawn) [Compound A34, 7-(4-Chlorophenyl)-2-((S)-2-hydroxy-3,3-dimethylbutyryl)-1,3,4,11a-tetrahydro-2H,10H-2,4a,10-triazadibenzo[a,d]cycloheptene-5,11-dione]"
–,0.1 to 1 µM,"O=C1Nc2ccc(-c3ccc(Cl)cc3)cc2C(=O)N2CCN(C(=O)c3cscn3)CC12 (stereo not drawn) [Compound A36, 7-(4-Chlorophenyl)-2-(thiazole-4-carbonyl)-1,3,4,11a-tetrahydro-2H,10H-2,4a,10-triaza-dibenzo[a,d]cycloheptene-5,11-dione]"

# Source: patent publication US20120115852A1, “HETEROCYCLIC COMPOUNDS AS AUTOTAXIN INHIBITORS” (Merck Patent Gesellschaft Mit Beschrankter Haftung, priority 2009, published 2012)
